Measured values taken from US7759345B2, “Antitumoral derivatives of ET-743” (priority 2001, dated 2010).
Where two headings read alike, the source gives them in different places.

What was measured:
A-549 = test: Inhibition of cells growth by colorimetric assay (SRB), A-549; type: cell-based; settings: for GI50 / LC50 (concentration for 50% cell killing): Homo sapiens, A549, 48 h; for GI50: read-out: A-549 GI50; for LC50 (concentration for 50% cell killing): read-out: A-549 LC50, SRB assay, 48 hours exposure
Outline: (§1)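 Sulforhodamine B protein-stain readout (490 nm) after 48 h drug exposure, with GI, TGI and LC parameters calculated from triplicate means. Cells seeded at 5×10^3 per well, allowed 18 h drug-free attachment; dose range 10 to 10^−8 μg/ml, vehicle DMSO/EtOH/PBS (0.5:0.5:99).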

SK-MEL-28 = test: Inhibition of cells growth by colorimetric assay (SRB), SK-MEL-28; type: cell-based; settings: for GI50 / CC50: Homo sapiens, SK-MEL-28, 48 h; for GI50 / MEL-28 TGI: SRB assay, 48 hours exposure; for GI50: read-out: MEL-28 GI50; for CC50: read-out: MEL-28 LC50, SRB assay, 48 hours exposure
Outline: as §1

HT-29 = test: Inhibition of cells growth by colorimetric assay (SRB), HT-29; type: cell-based; settings: for GI50 / LC50 (concentration for 50% cell killing): Homo sapiens, HT-29, 48 h; for GI50 / HT-29 TGI: SRB assay, 48 hours exposure; for GI50: read-out: HT-29 GI50; for LC50 (concentration for 50% cell killing): read-out: HT-29 LC50, SRB assay, 48 hours exposure
Outline: as §1

SW620 = test: Inhibition of cells growth by colorimetric assay (SRB), SW620; type: cell-based; settings: for GI50 / LC50: Homo sapiens; for GI50: read-out: SW-620 GI50; for LC50: read-out: SW-620 LC50
Protocol: (§2) 2°.—Inhibition of Cells Growth by Colorimetric Assay.
(§3) A colorimetric type of assay, using sulforhodamine B (SRB) reaction has been adapted for a quantitative measurement of cell growth and viability [following the technique described by Philip Skehan, et al. (1990), New colorimetric cytotoxicity assay for anticancer drug screening, J. Natl. Cancer Inst., 82:1107-1112]
(§4) This form of the assay employs 96 well cell culture microplates of 9 mm diameter (Faircloth, 1988; Mosmann, 1983). Most of the cell lines are obtained from American Type Culture Collection (ATCC) derived from different human cancer types.
(§5) Cells are maintained in RPMI 1640 10% FBS, supplemented with 0.1 g/l penicillin and 0.1 g/l streptomycin sulfate and then incubated at 37° C., 5% CO2 and 98% humidity. For the experiments, cells were harvested from subconfluent cultures using trypsin and resuspended in fresh medium before plating.
(§6) Cells are seeded in 96 well microtiter plates, at 5×10^3 cells per well in aliquots of 195 μl medium, and they are allowed to attach to the plate surface by growing in drug free medium for 18 hours. Afterward, samples are added in aliquots of 5 μl in a ranging from 10 to 10^−8 μg/ml, dissolved in DMSO/EtOH/PBS (0.5:0.5:99). After 48 hours exposure, the antitumor effect are measured by the SRB methodology: cells are fixed by adding 50 μl of cold 50% (wt/vol) trichloroacetic acid (TCA) and incubating for 60 minutes at 4° C. Plates are washed with deionized water and dried. One hundred μl of SRB solution (0.4% wt/vol in 1% acetic acid) is added to each microtiter well and incubated for 10 minutes at room temperature. Unbound SRB is removed by washing with 1% acetic acid. Plates are air dried and bound stain is solubilized with Tris buffer. Optical densities are read on a automated spectrophotometric plate reader at a single wavelength of 490 nm.
(§7) The values for mean+/−SD of data from triplicate wells are calculated. Some parameters for cellular responses can be calculated: GI=growth inhibition, TGI=total growth inhibition (cytostatic effect) and LC=cell killing (cytotoxic effect).
(§8) Obtained results may predict the usefulness of a certain drug as a potential cancer treatment. For this technique, compounds which show GI50 values smaller than 10 μg/ml are selected to continue with further studies. GI50's data allow to predict that not only could a drug be cystostatic, but also it could have a potential in terms of tumor reduction.

DU-145 = test: Inhibition of cells growth by colorimetric assay (SRB), DU-145; type: cell-based; settings: for GI50 / CC50: Homo sapiens, DU-145, 48 h; for GI50 / DU-145 TGI: SRB assay, 48 hours exposure; for GI50: read-out: DU-145 GI50; for CC50: read-out: DU-145 LC50, SRB assay, 48 hours exposure
Outline: as §1

MCF-7 = test: Inhibition of cells growth by colorimetric assay (SRB), MCF-7; type: cell-based; settings: for GI50 / CC50: Homo sapiens; for GI50: read-out: MCF GI50; for CC50: read-out: MCF LC50
Protocol: as §2, §3, §4, §5, §6, §7, §8

MDA-MB-231 = test: Inhibition of cells growth by colorimetric assay (SRB), MDA-MB-231; type: cell-based; settings: for CC50 / GI50: Homo sapiens; for CC50: MDA-MB-231, 48 h, read-out: MB-231 LC50; for GI50: MDA-MB-231, read-out: MB-231 GI50; for GI50 / MB-231 TGI: SRB assay, 48 hours exposure
Protocol: as §2, §3, §4, §5, §6, §7, §8

A-498 = test: Inhibition of cells growth by colorimetric assay (SRB), A-498; type: cell-based; settings: for LC50 / GI50: Homo sapiens; for LC50: A498, 48 h, read-out: A-498 LC50; for GI50: A498, read-out: A-498 GI50; for GI50 / A-498 TGI: SRB assay, 48 hours exposure
Protocol: as §2, §3, §4, §5, §6, §7, §8

OVCAR-3 = test: Inhibition of cells growth by colorimetric assay (SRB), OVCAR-3; type: cell-based
Protocol: as §2, §3, §4, §5, §6
The values for mean+/−SD of data from triplicate wells are calculated. Some parameters for cellular responses can be calculated: GI=growth inhibition, TGI=total growth inhibition (cytostatic effect) and LC=cell killing (cytotoxic effect). […]

[1] = MCF7, SRB assay, 48 hours exposure

Excerpt for Heart: (§9) Toxicity was asssessed by the methods reported in Toxicology in Vitro, 15 (2001) 571-577, J. Luber Narod et al.: “Evaluation of the use of in vitro methodolodies as tools for screening new compounds for potential in vivo toxicity”.
Excerpt for Kidney: as §9
Excerpt for Liver: as §9
Excerpt for Myelo: as §9
Excerpt for Skeletal: as §9

Compound	LC50 (concentration for 50% cell killing) (A-549) [nM]	A-549 TGI (A-549; SRB assay, 48 hours exposure)	GI50 (SK-MEL-28) [nM]	CC50 (SK-MEL-28) [nM]	MEL-28 TGI (SK-MEL-28)	GI50 (HT-29) [nM]	LC50 (concentration for 50% cell killing) (HT-29) [nM]	HT-29 TGI (HT-29)	LC50 (SW620; SW-620, 48 h) [nM]	SW-620 TGI (SW620; SRB assay, 48 hours exposure)	GI50 (DU-145) [nM]	CC50 (DU-145) [nM]	DU-145 TGI (DU-145)	CC50 (MCF-7; MCF7, 48 h) [nM]	MCF TGI (MCF-7; SRB assay, 48 hours exposure)	CC50 (MDA-MB-231) [nM]	GI50 (MDA-MB-231) [nM]	MB-231 TGI (MDA-MB-231)	LC50 (A-498) [nM]	GI50 (A-498) [nM]	other results
COc1cc2c(cc1OC(=O)OC(C)(C)C)CCN[C@]21CS[C@@H]2c3c(OC(=O)OC(C)(C)C)c(C)c4c(c3[C@H](COC1=O)N1C2[C@H]2c3c(cc(C)c(OC)c3O)C[C@@H]([C@@H]1O)N2C)OCO4 (stereo partly drawn) [Compound 173]	10.9	4.35E-09	2.17	10.9	5.43E-09	2.17	9.78	6.52E-09	21.7	6.52E-09	1.09	3.26	2.17E-09	109	9.78E-09	21.7	2.17	7.61E-09	21.7	2.17	GI50 (A-549): 3.26 nM; GI50 (SW620; SW-620, 48 h): 3.26 nM; GI50 (MCF-7; MCF7, 48 h): 3.26 nM; A-498 TGI (A-498): 4.35E-09; Toxicity Data Liver (Liver): 4.03E-08; Toxicity Data Heart (Heart): 1.19E-07; Toxicity Data Myelo (Myelo): 4.98E-06; Toxicity Data Skeletal (Skeletal): 2.49E-06; Toxicity Data Kidney (Kidney): 7.09E-08
COc1cc2c(cc1O)CCN[C@]21CS[C@@H]2c3c(OC)c(C)c4c(c3[C@H](COC1=O)N1C2[C@H]2c3c(cc(C)c(OC)c3O)C[C@@H]([C@@H]1O)N2C)OCO4 (stereo partly drawn) [Compound 182]	68.1	1.36E-09	0.409	5.45	1.36E-09	0.272	1.36	1.09E-09	13.6	4.09E-09	0.272	1.09	4.09E-10	13.6	5.45E-09	8.17	0.272	6.81E-10	5.45	0.409	GI50 (A-549; SRB assay, 48 hours exposure): 0.409 nM; GI50 (SW620; SW-620, 48 h): 1.09 nM; GI50 (MCF-7; [1]): 2.72 nM; A-498 TGI (A-498): 1.36E-09; Toxicity Data Liver (Liver): 3.98E-09; Toxicity Data Heart (Heart): 3.95E-08; Toxicity Data Myelo (Myelo): 3.19E-08; Toxicity Data Skeletal (Skeletal): 1.49E-08; Toxicity Data Kidney (Kidney): 1.26E-08
COc1cc2c(cc1OC(=O)/C=C/c1ccccc1)CCN[C@]21CS[C@@H]2c3c(OC(C)=O)c(C)c4c(c3[C@H](COC1=O)N1C2[C@@H]2N[C@@H](Cc3cc(C)c(OC)c(O)c32)[C@@H]1O)OCO4 (stereo partly drawn) [Compound 212]	114	2.28E-08	1.14	9.11	3.42E-09	2.28	11.4	4.56E-09	2280	1.14E-08	0.114	11.4	6.83E-10	342	1.14E-08	114	0.228	5.69E-09	1140	2.28	GI50 (A-549): 9.11 nM; GI50 (SW620; SW-620, SRB assay, 48 hours exposure): 0.0228 nM; GI50 (MCF-7; [1]): 0.342 nM; CC50 (OVCAR-3; Homo sapiens, OVCAR-3, 48 h, read-out: OVCAR LC50): 2280 nM; GI50 (OVCAR-3; Homo sapiens, OVCAR-3, SRB assay, 48 hours exposure): 0.342 nM; OVCAR TGI (OVCAR-3; SRB assay, 48 hours exposure): 3.42E-09; A-498 TGI (A-498): 1.14E-08; Toxicity Data Liver (Liver): 8.68E-08; Toxicity Data Heart (Heart): 3.20E-08; Toxicity Data Myelo (Myelo): 8.58E-09; Toxicity Data Skeletal (Skeletal): 2.21E-08; Toxicity Data Kidney (Kidney): 3.34E-09
